The assay relates to recombinant NL4-3 virus (Renilla luciferase in nef, Gag P373S). Nature of the assay: HIV cell culture assay (luciferase activity in MT-2 cells infected with NLRluc recombinant virus). The format is cell-based. Conditions: NL43, MT-2 cells infected 4-5 days with NLRluc recombinant virus. The procedure, abridged: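 MT-2 cells in RPMI/10% FBS were infected with recombinant NL4-3 (NLRluc), produced by 293T transfection and titered in MT-2 by luciferase. Serial inhibitor dilutions were present throughout a 4–5 day infection. Antiviral activity was quantified as Renilla luciferase signal via a modified Dual Luciferase read.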

As a reminder, the EC50 is the concentration giving half of the maximal effect.

A value given as a limit tells only on which side of the number the result lay.

Regarding `C=C(C)[C@@H]1CC[C@]2(CNCC(OCC)OCC)CC[C@]3(C)[C@H](CC[C@@H]4[C@@]5(C)CC=C(c6ccc(C(=O)O)cc6)C(C)(C)[C@@H]5CC[C@]43C)[C@@H]12` [Example 42, 4-((1R,3aS,5aR,5bR,7aR,11aS,11bR,13aR,13bR)-3a-((2,2-diethoxyethylamino)methyl)-5a,5b,8,8,11a-pentamethyl-1-(prop-1-en-2-yl)-2,3,3a,4,5,5a,5b,6,7,7a,8,11,11a,11b,12,13,13a,13b-octadecahydro-1H-cyclopenta[a]chrysen-9-yl)benzoic acid], the EC50 (class symbol) was under 100 nM.

For the compound `C=C(C)[C@@H]1CC[C@]2(CNCCN3CCN(C)CC3)CC[C@]3(C)[C@H](CC[C@@H]4[C@@]5(C)CC=C(c6ccc(C(=O)O)cc6)C(C)(C)[C@@H]5CC[C@]43C)[C@@H]12` [Example 11, 4-((1R,3aS,5aR,5bR,7aR,11aS,1bR,13aR,13bR)-5a,5b,8,8,11a-pentamethyl-3a-((2-(4-methylpiperazin-1-yl)ethylamino)methyl)-1-(prop-1-en-2-yl)-2,3,3a,4,5,5a,5b,6,7,7a,8,11,11a,11b,12,13,13a,13b-octadecahydro-1H-cyclopenta[a]chrysen-9-yl)benzoic acid], the EC50 (class symbol) is under 100 nM.

As to `C=C(C)[C@@H]1CC[C@]2(CNCC3CCCN3CC)CC[C@]3(C)[C@H](CC[C@@H]4[C@@]5(C)CC=C(c6ccc(C(=O)O)cc6)C(C)(C)[C@@H]5CC[C@]43C)[C@@H]12` (single isomer, unassigned) [Example 4], for the setting “class symbol”, the EC50 was under 100 nM.

As to `C=C(C)[C@@H]1CC[C@]2(CNC(=O)[C@H]3CCCN3)CC[C@]3(C)[C@H](CC[C@@H]4[C@@]5(C)CC=C(c6ccc(C(=O)O)cc6)C(C)(C)[C@@H]5CC[C@]43C)[C@@H]12` [Example 137, 4-((1R,3aS,5aR,5bR,7aR,11aS,11bR,13aR,13bR)-5a,5b,8,8,11a-pentamethyl-1-(prop-1-en-2-yl)-3a-(((R)-pyrrolidine-2-carboxamido)methyl)-2,3,3a,4,5,5a,5b,6,7,7a,8,11,11a,11b,12,13,13a,13b-octadecahydro-1H-cyclopenta[a]chrysen-9-yl)benzoic acid], the 50% effective concentration (EC50) (class symbol) is under 100 nM.

For the compound `C=C(C)[C@@H]1CC[C@]2(CNCCCBr)CC[C@]3(C)[C@H](CC[C@@H]4[C@@]5(C)CC=C(c6ccc(C(=O)O)cc6)C(C)(C)[C@@H]5CC[C@]43C)[C@@H]12` [Example 65, 4-((1R,3aS,5aR,5bR,7aR,11aS,11bR,13aR,13bR)-3a-((3-bromopropylamino)methyl)-5a,5b,8,8,11a-pentamethyl-1-(prop-1-en-2-yl)-2,3,3a,4,5,5a,5b,6,7,7a,8,11,11a,11b,12,13,13a,13b-octadecahydro-1H-cyclopenta[a]chrysen-9-yl)benzoic acid], where the note is “numeric value”, the EC50 was 1 nM.

Take `C=C(C)[C@@H]1CC[C@]2(CNCCC(=O)N3CCCCC3)CC[C@]3(C)[C@H](CC[C@@H]4[C@@]5(C)CC=C(c6ccc(C(=O)O)cc6)C(C)(C)[C@@H]5CC[C@]43C)[C@@H]12` [Example 96, 4-((1R,3aS,5aR,5bR,7aR,11aS,11bR,13aR,13bR)-5a,5b,8,8,11a-pentamethyl-3a-((3-oxo-3-(piperidin-1-yl)propylamino)methyl)-1-(prop-1-en-2-yl)-2,3,3a,4,5,5a,5b,6,7,7a,8,11,11a,11b,12,13,13a,13b-octadecahydro-1H-cyclopenta[a]chrysen-9-yl)benzoic acid]: the EC50 (class symbol) was under 100 nM.

For the compound `C=C(C)[C@@H]1CC[C@]2(CNC(=O)NCC(=O)OCC)CC[C@]3(C)[C@H](CC[C@@H]4[C@@]5(C)CC=C(c6ccc(C(=O)O)cc6)C(C)(C)[C@@H]5CC[C@]43C)[C@@H]12` [Example 156, 4-((1R,3aS,5aR,5bR,7aR,11aS,11bR,13aR,13bR)-3a-((3-(2-ethoxy-2-oxoethyl)ureido)methyl)-5a,5b,8,8,11a-pentamethyl-1-(prop-1-en-2-yl)-2,3,3a,4,5,5a,5b,6,7,7a,8,11,11a,11b,12,13,13a,13b-octadecahydro-1H-cyclopenta[a]chrysen-9-yl)benzoic acid], under “class symbol”, the half-maximal effective concentration (EC50) was under 100 nM.

These data come from patent publication US8748415B2 (priority 2011, dated 2014).
